Measured values from article PMC6527222 (PLoS ONE, 2019).
Values joined by “and” are separate entries in the source; they are usually repeats but may differ in a detail not shown here. Identical values can stand only once. Like-named read-outs stand apart in the source and are kept apart here.

Key:
JB6 P+ cells [1] = test: SRB cytotoxicity assay; type: cell-based, mouse; conditions: 72 hr; NT = no toxicity at any concentration tested
Protocol: 96-well plates were seeded with 3x10^3 JB6 P+ cells per well and allowed to attach overnight. […] Cell viability was determined using Sulforhodamine B (SRB) assay from Sigma-Aldrich according to the manufacturer’s protocol. Cellular protein content was measured using a Bio-Tek μQuant plate reader with KCJunior software.
Concentration-response curves were normalized so that the EGF positive control on each 96-well plate was set to 100% and the control wells on each plate were set to 0%. Toxicity assays (SRB and MTS) were normalized so that the control on each plate represented 100% viability. Normalization allowed for comparison of data over a range of JB6 P+ cell cultures, passages, and experimental time for the shRNA studies, as well as control for variation in the EGF response, and importantly allowed for a direct comparison to all concentration-response experiments including the toxicity assays. […] All group sizes were determined via previous studies to provide statistically meaningful data. In the soft agar assays, key results were repeated with different JB6 P+ cells to confirm the results. Similarly, the shRNA studies were conducted with three independent concentration-response curves with different JB6 P+ cell stocks. […] For two sample comparisons a t-test was utilized, and when comparing multiple samples a One-, Two-, or Three-Factor ANOVA followed by Tukey-Kramer post hoc test was utilized depending on the data. For all tests, statistical difference was donated when p < 0.05.
The IΔ2*PSD is expressed in x-axis units (log [M]) as is an IC50 and it represents the first concentration where it is expected to observe a statistical decrease in the measured signal.
Using the formula provided by GraphPad Prism or a straight line for the point-to-point graphs, the X-axis value for point Y was determined. The error is ascribed to this measurement via adding and subtracting the pooled standard deviation (PSD) to/from point Y generating point Y ± PSD. The two new points were then transformed to the X-axis units as was done for point Y creating an asymmetric error in sigmoidal plots. When the error was asymmetric, the larger error value was chosen to err on the conservative side. See S1 Fig for a pictoral explination of the method. The data is presented as IΔ2*PSD ± error.

A549, lung tumor, cells = conditions: cited from earlier work
α1D-AR = conditions: read-out: Kd towards the α1D-AR; cited from earlier work
JB6 P+ cells [2] = conditions: previous data, cited from earlier work
[3] = system: hairless mice (UV-induced skin thickening); test: Eight dose UV exposure, bi-folded epidermal thickness in hairless wild type and β2-AR knockout mice; type: in vivo, mouse; conditions: 5 μM in 200 μL acetone topically every other day, 200 mJ/cm^2 UV, eight irradiations
Protocol: The Western University of Health Sciences’ Institutional Animal Care and Use Committee (WesternU IACUC) approved all animal studies prior to initiating any experiments. The animal studies were carried out under WesternU IACUC recommendations and guidelines, which follow NIH guidelines. Mice had access to water and food ad libitum and housed on a 12-hour light/dark cycle with 35% humidity. Homozygous β1-AR and β2-AR null mice (Adrb1^tm1Bkk Adrb2^tm1Bkk/J Stock Number 003810) were purchased from Jackson Laboratory (Bar Harbor, ME); the double knockout mice were characterized previously. The double knockout mice were bred with C57BL/6J from Jackson Lab to generate a heterozygous F1 generation. The F1 generation was bred together to generate the F2 generation of which 1/16th of the offspring were a β2-AR knockout mouse. SKH-1 mice purchased from Charles River (Wilmington, MA) were bred with the β2-AR knockout mice generating a second heterozygous F1 generation. The F1 generation was bred together to generate the F2 generation of which 1/16th of the offspring were a hairless β2-AR knockout mouse. The F2 generation was backcrossed with a new batch of SKH-1 from Charles River to generate mice more efficiently. The mice used in this study are 75% SKH-1 and 25% mixed background. Following experimentation, and to cull the unused mice in a colony, mice were euthanized via exposure to 32% Isoflurane followed by cervical dislocation to ensure euthanization prior to disposal.
The first two weeks were pretreatment and the second two weeks were during the UV irradiation procedure, but drugs were applied the day after UV exposure to avoid sunscreen effects. All groups involved with UV were irradiated with 200 mJ/cm^2 dose of UV every other day for a total of eight irradiations. Bi-folded epidermal thickness was measured using a digital caliper before drug treatment on non-radiation days. Three skin thickness measurements were taken along the left, middle, and right dorsal epidermal layer, and the mean thickness was recorded for each mouse.

JB6 P+ cells [4] = test: Modified seven-day soft agar assay in shRNA lentivirus infected JB6 P+ cells; type: cell-based, mouse; conditions: for IC50: Mus musculus
Protocol: Knockdown of the β2-AR via the Adrb2 shRNA lentivirus was examined via seeding 1x10^4 JB6 P+ cells/well of a 6-well plate in standard growth media (see above). 24 hr after seeding, the growth media was removed from attached cells and replaced with 2 ml EMEM containing 4% heat-inactivated FBS without antibiotics and […] polybrene. 1.5 ml lentiviral shRNA stocks of either Adrb2 or scrambled control were added to appropriate wells and plates were centrifuged at 1,000 g at room temperature for 1 hr. Following centrifugation, media was replaced with 3 ml EMEM lacking antibiotics and grown at 37°C. After 2, 3, 7, and 10 days of growth, cells were trypsinized, collected and centrifuged at 300g for 5 min. Cells were washed with 1 ml PBS, and RNA was extracted using Qiagen’s RNeasy Mini kit. RNA was reverse transcribed into cDNA using Applied Biosystems cDNA reverse transcription kit (Invitrogen) and stored at -20°C for future use.
β2-AR shRNA lentivirus infected JB6 P+ cells were utilized in modified anchorage-independent growth assays in soft agar. The procedure was shortened to seven days because the shRNA-mediated β2-AR knockdown persisted up to ten days. Infection of the cells occurred as described in the verification of effective shRNA-mediated β2-AR knockdown, and the cells were grown for three days, then they were added to the agar as described in the anchorage-independent growth assays in soft agar section. The colonies were counted after seven days in culture; thus, matching the ten days of β2-AR knockdown.

IC50 (JB6 P+ cells [4]; 168 h, independent experiments 1-3, seven days, read-out: ardb2 shRNA Mean logIC50 (converted)): 718 nM
IC50 (JB6 P+ cells [4]; 168 h, scrambled control shRNA, three experiments combined (Fig 6B), seven days, read-out: LogIC50 (converted)): 813 nM
IC50 (JB6 P+ cells [4]; 168 h, β2-AR-targeted shRNA, three experiments combined (Fig 6B), seven days, read-out: LogIC50 (converted)): 1000 nM
IC50 (JB6 P+ cells [4]; line Mean, read-out: Scrambled shRNA Mean logIC50, mean of three experiments (converted)): 714 nM
IC50 (JB6 P+ cells [4]; line Mean, read-out: ardb2 shRNA Mean logIC50, mean of three experiments (converted)): 979 nM
Structure (SMILES): COc1ccccc1OCCNCC(O)COc1cccc2[nH]c3ccccc3c12 (stereo not shown) [Carvedilol]
SRB Assay Log IΔ2*PSD (JB6 P+ cells [1]): -4.89 ± 0.09 log [M]
reducing the growth of injected A549 cells in vivo, words (A549, lung tumor, cells): not effective
Kd (α1D-AR): 1.2 nM
effect on EGF-mediated transformation of JB6 P+ cells, words (JB6 P+ cells [2]): completely prevents
IC50 (JB6 P+ cells [2]; read-out: IC50, inhibition of EGF-mediated transformation): 782 nM
effect on UV-induced skin thickening, words ([3]; wild type mice): statistical difference from the UV control on day 8 onward
effect on UV-induced skin thickening, words ([3]; β2-AR knockout mice): greater effects in the knockout mice
ardb2 shRNA Mean logIC50 (JB6 P+ cells [4]; independent experiments 1-3, seven days): -5.965 log [M] and -5.917 log [M]
